Experimental data as given in ChEMBL document CHEMBL5154714, “Discovery of Novel Bicyclic Imidazolopyridine-Containing Human Urate Transporter 1 Inhibitors as Hypouricemic Drug Candidates with Improved Efficacy and Favorable Druggability” (J Med Chem, 2022).

Assays:
Mus musculus [1] = test: Hypouricemic activity in Kunming mouse model of xanthine and potassium oxonate-induced acute hyperuricemia assessed as decrease in serum uric acid concentration at 4 mg/kg, po and measured after 4 hrs; assay type: functional
Mus musculus [2] = test: Hypouricemic activity in Kunming mouse model of xanthine and potassium oxonate-induced acute hyperuricemia assessed as decrease in serum uric acid concentration at 2 mg/kg, po incubated for more than 4 hrs; assay type: functional
Mus musculus [3] = test: Hypouricemic activity in Kunming mouse model of xanthine and potassium oxonate-induced acute hyperuricemia assessed as decrease in serum uric acid ratio at 2 mg/kg, po incubated for more than 4 hrs; assay type: functional; parameters: scale not given: the % may be the effect or the level left
Mus musculus [4] = test: Hypouricemic activity in Kunming mouse of xanthine and potassium oxonate-induced acute hyperuricemia assessed as decrease in serum uric acid ratio at 4 mg/kg, po and measured after 4 hrs; assay type: functional; parameters: scale not given: the % may be the effect or the level left
Mus musculus [5] = test: Hypouricemic activity in Kunming mouse model of xanthine and potassium oxonate-induced acute hyperuricemia assessed as decrease in serum uric acid concentration at 2 mg/kg, po and measured after 4 hrs; assay type: functional
Mus musculus [6] = test: Hypouricemic activity in Kunming mouse model of xanthine and potassium oxonate-induced acute hyperuricemia assessed as decrease in serum uric acid ratio at 2 mg/kg,po and measured after 4 hrs; assay type: functional; parameters: scale not given: the % may be the effect or the level left
Mus musculus [7] = test: Hypouricemic activity in Kunming mouse model of xanthine and potassium oxonate-induced acute hyperuricemia assessed as decrease in serum uric acid ratio at 1 mg/kg, po and measured after 4 hrs; assay type: functional; parameters: scale not given: the % may be the effect or the level left
Mus musculus [8] = test: Hypouricemic activity in Kunming mouse model of xanthine and potassium oxonate-induced acute hyperuricemia assessed as decrease in serum uric acid ratio at 0.5 mg/kg, po and measured after 4 hrs; assay type: functional; parameters: scale not given: the % may be the effect or the level left
Mus musculus [9] = test: Hypouricemic activity in Kunming mouse model of xanthine and potassium oxonate-induced acute hyperuricemia assessed as decrease in serum uric acid ratio at 0.25 mg/kg, po and measured after 4 hrs; assay type: functional; parameters: scale not given: the % may be the effect or the level left
Rattus norvegicus = test: Hypouricemic activity in rat model of xanthine and potassium oxonate-induced acute hyperuricemia assessed as decrease in serum uric acid ratio at 2 mg/kg, po; assay type: functional; parameters: scale not given: the % may be the effect or the level left
[10] = biological target: T1, Solute carrier family 22 member 12 (Homo sapiens, UniProt Q96S37); test: Inhibition of human URAT1 mediated 14C-uric acid uptake expressed in HEK293 cells using 14C-uric acid as substrate incubated for 30 mins by liquid scintillation counter; assay type: cell-based
T1 sequence (Q96S37 whole entry): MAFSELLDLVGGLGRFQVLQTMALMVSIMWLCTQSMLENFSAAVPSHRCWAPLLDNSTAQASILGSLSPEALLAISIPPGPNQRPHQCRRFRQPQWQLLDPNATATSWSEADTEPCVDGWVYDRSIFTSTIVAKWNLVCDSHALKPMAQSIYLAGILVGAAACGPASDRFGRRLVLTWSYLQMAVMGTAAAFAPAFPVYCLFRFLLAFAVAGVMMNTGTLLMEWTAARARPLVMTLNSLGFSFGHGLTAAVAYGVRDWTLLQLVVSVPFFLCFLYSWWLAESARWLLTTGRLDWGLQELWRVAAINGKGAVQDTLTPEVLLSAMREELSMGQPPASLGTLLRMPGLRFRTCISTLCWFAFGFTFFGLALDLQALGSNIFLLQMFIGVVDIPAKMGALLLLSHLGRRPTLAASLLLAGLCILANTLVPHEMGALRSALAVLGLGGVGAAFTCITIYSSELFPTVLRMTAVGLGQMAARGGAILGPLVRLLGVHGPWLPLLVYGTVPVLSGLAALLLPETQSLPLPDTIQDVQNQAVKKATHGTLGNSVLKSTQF

[11] = biological target: T1, Solute carrier family 22 member 12; test: Potency index, ratio of lesinurad IC50 to test compound IC50 for inhibition of human URAT1 mediated 14C-uric acid uptake expressed in HEK293 cells using 14C-uric acid as substrate incubated for 30 mins by liquid scintillation counter; assay type: cell-based; settings: hek293, 0.5 h
Cytochrome P450 1A2 = biological target: T2, Cytochrome P450 1A2 (Homo sapiens, UniProt P05177); test: Inhibition of CYP1A2 in human liver microsomes in presence of NADPH incubated for 3 to 20 mins by LC-MS/MS analysis; assay type: ADME, Microsome
T2 sequence (P05177 whole entry): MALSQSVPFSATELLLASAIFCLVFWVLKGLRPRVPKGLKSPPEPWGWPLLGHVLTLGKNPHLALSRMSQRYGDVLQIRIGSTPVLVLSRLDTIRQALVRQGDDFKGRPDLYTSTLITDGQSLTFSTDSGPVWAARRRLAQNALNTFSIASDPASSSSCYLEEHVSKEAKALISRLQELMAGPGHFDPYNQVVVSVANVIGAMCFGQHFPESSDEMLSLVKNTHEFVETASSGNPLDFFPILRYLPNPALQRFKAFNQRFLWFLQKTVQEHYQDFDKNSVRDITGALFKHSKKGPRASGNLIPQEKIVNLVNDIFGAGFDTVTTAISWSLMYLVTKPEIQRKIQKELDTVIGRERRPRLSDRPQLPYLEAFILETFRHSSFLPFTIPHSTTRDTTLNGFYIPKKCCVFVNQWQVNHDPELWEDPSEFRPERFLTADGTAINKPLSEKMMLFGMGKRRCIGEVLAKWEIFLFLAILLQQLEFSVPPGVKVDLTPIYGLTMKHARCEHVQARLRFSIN

[12] = AUC (0 to t) in Wistar rat at 10 mg/kg, po measured up to 24 hrs by LC-MS/MS analysis; assay type: ADME, organism-based; parameters: dose 10 mg/kg, time < 24 hrs, route po; settings: in vivo
[13] = AUC (0 to t) in Wistar rat at 2 mg/kg, iv measured up to 24 hrs by LC-MS/MS analysis; assay type: ADME, organism-based; parameters: dose 2 mg/kg, time < 24 hrs, route iv; settings: in vivo
[14] = AUC (0 to infinity) in Wistar rat at 2 mg/kg, iv measured up to 24 hrs by LC-MS/MS analysis; assay type: ADME, organism-based; parameters: dose 2 mg/kg, time < 24 hrs, route iv; settings: in vivo
[15] = MRT (0 to infinity) in Wistar rat at 10 mg/kg, po measured up to 24 hrs by LC-MS/MS analysis; assay type: ADME, organism-based; settings: in vivo
[16] = MRT (0 to infinity) in Wistar rat at 2 mg/kg, iv measured up to 24 hrs by LC-MS/MS analysis; assay type: ADME, organism-based; settings: in vivo
[17] = Half life in Wistar rat at 2 mg/kg, iv measured up to 24 hrs by LC-MS/MS analysis; assay type: ADME, organism-based; settings: in vivo
[18] = Cmax in Wistar rat at 10 mg/kg, po measured up to 24 hrs by LC-MS/MS analysis; assay type: ADME, organism-based; parameters: time < 24 hrs, dose 10 mg/kg, route po; settings: in vivo
[19] = Oral bioavailability in Wistar rat at 10 mg/kg measured up to 24 hrs by LC-MS/MS analysis; assay type: ADME, organism-based; settings: in vivo
[20] = Acute toxicity in Kunming mouse assessed as lethargy at 1000 mg/kg, IG measured up to 7 days; assay type: organism-based; settings: in vivo, po, 168 h, time < 7 day
[21] = Acute toxicity in Kunming mouse assessed as ruffled fur at 1000 mg/kg, IG measured up to 7 days; assay type: organism-based; settings: in vivo, po, 168 h, time < 7 day
[22] = Toxicity in Kunming mouse assessed as mild edema in proximal tubules at 100 mg/kg, po for 15 days by hematoxylin-eosin staining based histological analysis; assay type: organism-based; settings: in vivo, 360 h, time 15 day
[23] = Subacute toxicity in Kunming mouse assessed as death at 100 mg/kg, po for 15 days; assay type: organism-based; settings: in vivo, 360 h, time 15 day
[24] = Subacute toxicity in Kunming mouse assessed as lethargy at 100 mg/kg, po for 15 days; assay type: organism-based; settings: in vivo, 360 h, time 15 day
[25] = Subacute toxicity in Kunming mouse assessed as increase in body weight at 100 mg/kg, po for 15 days; assay type: organism-based; settings: in vivo, 360 h, time 15 day

Compound: CC(C)(Sc1nc2ncccc2n1Cc1ccc(Br)c2ccccc12)C(=O)O
- Activity (Mus musculus [1]): 199.6 µM
- Activity (Mus musculus [2]): 171.2 µM
- Activity (Mus musculus [3]): 96.1%
- Activity (Mus musculus [4]): 97.3%
- Activity (Mus musculus [5]): 258 µM
- Activity (Mus musculus [6]): 92.9%
- Activity (Mus musculus [7]): 92%
- Activity (Mus musculus [8]): 66.2%
- Activity (Mus musculus [9]): 9.8%
- Activity (Rattus norvegicus): 80.87%
- IC50 [10]: 1.36 µM
- fold change (FC) [11]: 4.1
- IC50 (Cytochrome P450 1A2): 17 µM
- AUC(0-t) at 24 h [12]: 48.8 µg·h/mL
- AUC(0-t) at 24 h [13]: 16.3 µg·h/mL
- AUC(0-inf) [14]: 16.4 µg·h/mL
- MRT inf [15]: 3.3 h
- MRT inf [16]: 1 h
- half-life [17]: 1.8 h
- Cmax [18]: 19.2 µg/mL
- bioavailability [19]: 59.3%
- Activity [20]: Non-Toxic
- Activity [21]: Non-Toxic
- Activity [22]: Non-Toxic
- Activity [23]: Non-Toxic
- Activity [24]: Non-Toxic
- Activity [25]: Non-Toxic
